Data: patent US5545667A, “Methods for treating neoplasms with betaines” (The Clorox Company, priority 1994, dated 1996)
Counter-ions that a name gives are not always drawn. Like-named read-outs stand apart in the source and are kept apart here.

How the values were obtained:
C3H 10T1/2 cells = test: Cell growth inhibition assay, C3H 10T1/2; assay type: cell-based, mouse
Description: (§1) Established cell lines are the system of choice for the prescreening of unknown compounds for antineoplastic activity. The tumor cell line screen works on the following principle. Cancer cells, if provided with enough nutrients, will grow unchecked in vitro, allowing researchers to grow many types of cancer cells outside the body. To perform an assay, standard amounts of the various cancer cells are placed in individual wells of a microtiter plate, and incubated with the potential antineoplastic compound of interest, for a sufficient period of time to allow for at least a 6-fold control growth, generally 1 to 5 days depending on cell origin. At the end of the incubation period, the cell lines are stained and assayed by a variety of means including, for example, proteins stains or a colorimeter for normal growth, growth inhibition or cytotoxicity. These assays measure a compound's ability to inhibit cell growth and a positive response of the compounds in these assays would be indicative of the therapeutic potential of these compounds. See, for example, the protocols and data presented in Laskin et al., (1979) Cancer Res 39:383-390 for 5-fluorouracil in mouse and human cells in culture.
(§2) A total of ten cell lines were used to evaluate the growth inhibitory potency of the various surfactants. In these studies, human, rat, mouse and bovine cells were used. A spectrum of different tumor cell types were used including those derived from keratinocytes (PAM 212), leukemias (HL-60, U-937 and K-562), an epitheloid carcinoma (HeLa) and melanoma (B-16). The B16 melanoma was used since this is a common cell type used to evaluate antimetastatic activity of test compounds. The effect of the surfactants on three fibroblast cell lines (C3H 10T1/2, NIH 3T3 and R6) were also evaluated for comparison to the tumor cell lines. The activity of the surfactants was also evaluated using pulmonary aortic endothelial cells for effectiveness as antiangiogenic agents.
(§3) PAM 212 cells are a mouse keratinocyte-derived tumor cell line. U-937 cells are a human histiocytic tumor cell line. HeLa cells are an epitheloid tumor cell line. Three murine fibroblast cells lines tested included the mouse fibroblast cell line, C3H 10T1/2, the rat fibroblast cell line R6, and the NIH 3T3 mouse fibroblast cell line. The human leukemia cell line HL-60 and the mouse melanoma B-16 cell were also tested. K-562 cells were from the American Type Culture Collection. All cells were grown in Dulbecco's modified Eagle's medium in a 37° C. incubator in an atmosphere of 5% CO2.
(§4) For growth inhibition assays, cells were seeded at low density (2.5×10^4 cells in 0.5 ml of culture medium) into 24-well tissue culture plates (Falcon Labware, Lincoln Park, N.J.). After 24 hours at 37° C., increasing concentrations (1 to 100 uM) of the surfactants were added to the cells in the culture plate. Control cultures were incubated in the absence of any surfactant. The cells were then incubated for 3-4 days to allow for growth. Cells from individual wells in the culture plate were then removed and duplicate samples taken for counting using a Coulter counter. To remove adherent cells the plates were treated with 0.25% trypsin/0.2% EDTA (GIBCO, Grand Island, N.Y.).

U-937 cells = test: Cell growth inhibition assay, U-937; assay type: cell-based; conditions: Homo sapiens
Description: as §1, §2, §3, §4

NIH 3T3 cells = test: Cell growth inhibition assay, NIH 3T3; assay type: cell-based, mouse
Description: as §1, §2, §3, §4

B-16 cells = test: Cell growth inhibition assay, B-16 melanoma; assay type: cell-based, mouse
Description: as §1, §2, §3, §4

CPA-5 cells = test: Cell growth inhibition assay, CPA-5 endothelial cells; assay type: cell-based, bovine; conditions: Bos taurus, read-out: IC50 (uM conc. inhibiting growth of the cells by 50%)
Text: as §2, §3, §4
The compounds were tested as inhibitors of growth in the bovine aortic endothelial cell line CPA-5 as taught in Example 2 in order to evaluate the possibility that they may be anti-angiogenesis agents. A hallmark of angiogenesis is the outgrowth of endothelial cells which are required in the formation of new blood vessels. This process is a critical factor in the vascularization of tumors. Inhibition of neovascularization limits the growth of tumors and would be an effective means of treating cancer. FIG. 3 illustrates that three of the compounds, 8-3S, 12-5B and 12-1B, had no activity against the CPA-5 cell line in the concentration range tested (IC50 =>100 uM), while only relatively high concentrations of 12-3S (IC50 =70 uM) were effective in inhibiting the growth of CPA-5 cells. As indicated above, with several exceptions, these compounds were also not very effective in inhibiting the growth of each of the other cell types.

[1] = Critical micelle concentration (cmc); assay type: physicochemical
Text: "Critical micelle concentration" or "cmc" refers to the point at which micelle formation begins.

HL-60 cells = test: Cell growth inhibition assay, HL-60; assay type: cell-based, human
Description: as §1, §2, §3, §4

R6 cells = test: Cell growth inhibition assay, R6; assay type: cell-based, rat; conditions: Fibroblast, read-out: IC50 (uM conc. inhibiting growth of the cells by 50%)
Description: as §1, §2, §3, §4

K-562 cells = test: Cell growth inhibition assay, K-562; assay type: cell-based; conditions: Homo sapiens
Description: as §1, §2, §3, §4

PAM 212 cells = test: Cell growth inhibition assay (surfactants, 3-4 days, Coulter counter), PAM 212; assay type: cell-based, mouse
Description: as §1, §2, §3, §4

HeLa cells = test: Cell growth inhibition assay, HeLa; assay type: cell-based; conditions: read-out: IC50 (uM conc. inhibiting growth of the cells by 50%)
Description: as §1, §2, §3, §4

battery of cell lines = conditions: 1988 report; cited from earlier work
ten cell lines = test: Cell growth inhibition assays, panel of cell lines; assay type: cell-based, human, rat, mouse and bovine
Text: as §2, §3, §4

liver = conditions: rats fed ethionine; cited from earlier work
[2] = C3H 10T1/2 mouse fibroblasts, 3-4 days, read-out: IC50 (uM conc. inhibiting growth of the cells by 50%)
[3] = U-937, U-937 human histiocytic tumor cells, 3-4 days, read-out: IC50 (uM conc. inhibiting growth of the cells by 50%)
[4] = NIH3T3, NIH 3T3 mouse fibroblasts, 3-4 days, read-out: IC50 (uM conc. inhibiting growth of the cells by 50%)
[5] = B16, B-16 mouse melanoma cells, 3-4 days, read-out: IC50 (uM conc. inhibiting growth of the cells by 50%)
[6] = CPA-5 bovine aortic endothelial cells, 3-4 days
[7] = HL-60 human leukemia cells, 3-4 days, read-out: IC50 (uM conc. inhibiting growth of the cells by 50%)
[8] = K562, K-562 leukemia cells, 3-4 days, read-out: IC50 (uM conc. inhibiting growth of the cells by 50%)
[9] = PAM212, PAM 212 mouse keratinocyte-derived tumor cells, 3-4 days, read-out: IC50 (uM conc. inhibiting growth of the cells by 50%)
[10] = Homo sapiens, HeLa, HeLa cells, 3-4 days
[11] = Mus musculus, C3H 10T1/2, read-out: IC50 (uM conc. inhibiting growth of the cells by 50%)
[12] = U-937, read-out: IC50 (uM conc. inhibiting growth of the cells by 50%)
[13] = Mus musculus, NIH3T3, read-out: IC50 (uM conc. inhibiting growth of the cells by 50%)
[14] = Mus musculus, B16, read-out: IC50 (uM conc. inhibiting growth of the cells by 50%)
[15] = Homo sapiens, HL-60, read-out: IC50 (uM conc. inhibiting growth of the cells by 50%)
[16] = K562, read-out: IC50 (uM conc. inhibiting growth of the cells by 50%)

SMILES	IC50 (C3H 10T1/2 cells; [2]) [µM]	IC50 (U-937 cells; [3]) [µM]	IC50 (NIH 3T3 cells; [4]) [µM]	IC50 (B-16 cells; [5]) [µM]	IC50 (CPA-5 cells; [6]) [µM]	cmc [1]	IC50 (HL-60 cells; [7]) [µM]	IC50 (R6 cells; R6 rat fibroblasts, 3-4 days) [µM]	IC50 (K-562 cells; [8]) [µM]	IC50 (PAM 212 cells; [9]) [µM]	IC50 (HeLa cells; [10]) [µM]	other results
CCCCCCCCCCCCCCCC[N+](C)(C)CCCS(=O)(=O)[O-] [16-3S, N-hexadecyl-N,N-dimethyl-3-ammonio-1-propanesulfonate]	3.3	6	40	54	17	28 µM	1.6	14	15	7.5	2.2	–
CCCCCCCCCCCC[N+](C)(C)CCCCCC(=O)[O-] [12-5B, N-(5-carboxypentyl)-N,N-dimethyl-1-dodecanaminium hydroxide inner salt]	> 100	> 100	> 100	> 100	> 100	5,100 uM	11	78	> 100	60	75	–
CCCCCCCCCCCC[N+](C)(C)CC(=O)[O-] [12-1B, N-(carboxymethyl)-N,N-dimethyl-1-dodecanaminium hydroxide inner salt]	–	–	–	–	–	2,400 uM	–	–	–	–	–	IC50 (C3H 10T1/2 cells; [11]): > 100 µM; inhibition and toxicity at the concentrations tested (battery of cell lines): inhibitory and toxic; IC50 (U-937 cells; [12]): > 100 µM; IC50 (NIH 3T3 cells; [13]): > 100 µM; IC50 (B-16 cells; [14]): 90 µM; IC50 (CPA-5 cells): > 100 µM; IC50 (HL-60 cells; [15]): 37 µM; IC50 (R6 cells; Rattus norvegicus): > 100 µM; IC50 (K-562 cells; [16]): 19 µM; IC50 (HeLa cells; Homo sapiens, HeLa): 39 µM
CCCCCCCC[N+](C)(C)CCCS(=O)(=O)[O-] [8-3S, N-octyl-N, N-dimethyl-3-ammonio-1-propanesulfonate]	> 100	> 100	> 100	> 100	> 100	200,000 uM	> 100	78	> 100	> 100	> 100	IC50 (ten cell lines; all / all other cell lines tested, read-out: IC50 over the cell lines tested (range or bound)): > 100 µM
C[N+](C)(C)CC(=O)O [betaine]	–	–	–	–	–	–	–	–	–	–	–	prevention of chronic morphological changes in the liver, including cancer formation (liver): relatively effective in preventing chronic morphological changes in the liver, including cancer formation
CCCCCCCCCCCCCCCC[N+](C)(C)CC(=O)[O-] [16-1B, N-(carboxymethyl)-N,N-dimethyl-1-hexadecanaminium hydroxide inner salt]	–	–	–	–	–	14 µM	–	–	–	–	–	IC50 (C3H 10T1/2 cells; [11]): 54 µM; activity against all of the cell lines tested (ten cell lines; growth inhibition): effective against all of the cell lines; IC50 (U-937 cells; [12]): 23 µM; IC50 (NIH 3T3 cells; [13]): 60 µM; IC50 (B-16 cells; [14]): 52 µM; IC50 (CPA-5 cells): 30 µM; IC50 (HL-60 cells; [15]): 8 µM; IC50 (R6 cells; Rattus norvegicus): 45 µM; IC50 (K-562 cells; [16]): 32 µM; IC50 (PAM 212 cells; Mus musculus, PAM212, read-out: IC50 (uM conc. inhibiting growth of the cells by 50%)): 50 µM; IC50 (HeLa cells; Homo sapiens, HeLa): 16 µM
CCCCCCCCCCCC[N+](C)(C)CCCS(=O)(=O)[O-] [12-3S, N-dodecyl-N,N-dimethyl-3-ammonio-1-propanesulfonate]	6.5	> 100	> 100	> 100	70	2,200 uM	9.3	45	> 100	3	68	inhibition and toxicity at the concentrations tested (battery of cell lines): noninhibitory and nontoxic; IC50 (HeLa cells; HeLa cells, 3-4 days): 58 µM
